The test system of data set [1] is Rab10 pThr73. As to the kind of experiment: Rab10 Thr73 dephosphorylation in LRRK2^R1441C MEFs. In kind it is cell-based. The settings on record: Mus musculus; dose response, 4 h treatment. The text has this:
Primary MEFs were generated as described in a previous study (Wiggin et al., Mol. Cell Biol. 2002 April; 22(8):2871-81.). Briefly, the uterine horn was collected from adult female mice at day E12.5 and transferred to a 10 cm tissue culture dish containing cold PBS. Two forceps were used to tear the yolk sacs to isolate each embryo. Forceps were cleaned thoroughly with 70% ethanol between each embryo isolation. The embryos were culled, and a tissue piece was collected in a PCR tube for genotyping. The red tissue of the embryo, which grows to become the heart and liver, was removed. The remainder of the embryo was minced with a scalpel blade and incubated with 7.5 ml trypsin-EDTA solution for 10 minutes in a 37° C. tissue culture CO2 incubator. The dish was removed from the incubator and checked under a light microscope for single cells. 7.5 ml complete media was added to the trypsinised cells, and the cell suspension was transferred to a 15 ml Falcon tube, centrifuged at 1200 rpm for 5 minutes at room temperature. […]
Culturing and passaging of adherent cell lines were carried out using aseptic technique in CL1 or CL2 (for PBMC isolation) biological safety cabinets. […] The cell pellet was discarded, and supernatant was collected for analysis by quantitative immunoblotting. […] Protein concentrations of cell lysates were determined using the Bradford assay. […]

Data set [2] deals with Rab10 pThr73. Briefly: Rab10 Thr73 dephosphorylation (immunoblot) in LRRK2^G2019S MEFs. In kind it is cell-based. The settings on record: Mus musculus, read-out: pRab10 inhibited in LRRK2^G2019S MEFs.
A short description of data set [3]: Solubility. In kind it is physicochemical.
Data set [4] is described as follows: Stability in mouse hepatocytes. The class given is in vitro ADME. The settings on record: read-out: T1/2 in mouse hepatocytes.
The test system of data set [5] is Caco-2 mono-cell layer. As to the kind of experiment: Caco-2 permeability. The class given is in vitro ADME.
Data set [6] in a line: Caco-2 permeability. In kind it is in vitro ADME. The settings on record: human, Caco-2.

≈ marks a conversion by molar mass, not a printed value. Entries after “also recorded” stand apart in the source; their conditions may differ. Read-outs that look alike come from different tables or passages of the source.

`CNc1nc(Nc2ccc(C(=O)N3CCN(C[C@H]4CC[C@H](CSC(C)(C)[C@H](NC(=O)C5(F)CC5)C(=O)N5C[C@@H](O)CC5C(=O)NCc5ccc(-c6scnc6C)cc5)CC4)CC3)cc2OC)ncc1Cl` (stereo partly drawn) [Cis-XL01126, (2S,4S)-1-((R)-3-((((1r,4R)-4-((4-(4-((5-chloro-4-(methylamino)pyrimidin-2-yl)amino)-3-methoxybenzoyl)piperazin-1-yl)methyl)cyclohexyl)methyl)thio)-2-(1-fluorocyclopropane-1-carboxamido)-3-methylbutanoyl)-4-hydroxy-N-(4-(4-methylthiazol-5-yl)benzyl)pyrrolidine-2-carboxamide] gave an EC50 in data set [1] of 158 nM.

For `CNc1nc(Nc2ccc(C(=O)N3CCN(CCOCCOCCSC(C)(C)[C@H](NC(=O)C4(F)CC4)C(=O)N4C[C@H](O)C[C@H]4C(=O)NCc4ccc(-c5scnc5C)cc4)CC3)cc2OC)ncc1Cl` [SD75, (2S,4R)-1-((R)-3-((2-(2-(2-(4-(4-((5-chloro-4-(methylamino)pyrimidin-2-yl)amino)-3-methoxybenzoyl)piperazin-1-yl)ethoxy)ethoxy)ethyl)thio)-2-(1-fluorocyclopropane-1-carboxamido)-3-methylbutanoyl)-4-hydroxy-N-(4-(4-methylthiazol-5-yl)benzyl)pyrrolidine-2-carboxamide], the inhibition at 0.033 µM in data set [2] (33 nM/4 h treatment) lay in the range of 0 to 60%; in data set [2] (33 nM/24 h treatment), 0 to 70%.

Regarding `CNc1nc(Nc2ccc(C(=O)N3CCN(C[C@H]4CC[C@H](CSC(C)(C)[C@H](NC(=O)C5(F)CC5)C(=O)N5C[C@H](O)CC5C(=O)NCc5ccc(-c6scnc6C)cc5)CC4)CC3)cc2OC)ncc1Cl` (stereo partly drawn) [XL01126, (2S,4R)-1-((R)-3-((((1R,4R)-4-((4-(4-((5-chloro-4-(methylamino)pyrimidin-2-yl)amino)-3-methoxybenzoyl)piperazin-1-yl)methyl)cyclohexyl)methyl)thio)-2-(1-fluorocyclopropane-1-carboxamido)-3-methylbutanoyl)-4-hydroxy-N-(4-(4-methylthiazol-5-yl)benzyl)pyrrolidine-2-carboxamide], the solubility in data set [3] (FeSSIF (fed state simulated intestinal fluid), fessif, Fed State Simulated Intestinal Fluid pH 5.8, read-out: Solubility in FeSSIF (pH 5.8)) is 26.1 µM (≈ 26.6 µg/mL); in data set [3] (aqueous buffer, PBS pH 7.4, read-out: Solubility in PBS (pH 7.4)), 0.55 µM (≈ 0.561 µg/mL). In addition, the half-life in data set [4] came to 5.24 h. The “penetration of Caco-2 mono-cell layer (in words)” value in data set [5] is given as “can penetrant Caco-2 mono-cell layer; also recorded: can penetrate Caco-2 mono-cell layer”. Also, the Papp A→B in data set [6] (A − B) is under 0.74 ×10⁻⁶ cm/s. In addition, in data set [6] (B − A), the apparent permeability from basolateral to apical (Papp B→A) is under 1.43 ×10⁻⁶ cm/s. In data set [1], this molecule registered an EC50 of 30 nM.

In the case of `CNc1nc(Nc2ccc(C(=O)N3CCN(C[C@H]4CC[C@@H](CSC(C)(C)[C@H](NC(=O)C5(F)CC5)C(=O)N5C[C@H](O)CC5C(=O)NCc5ccc(-c6scnc6C)cc5)CC4)CC3)cc2OC)ncc1Cl` (stereo partly drawn) [XL01134], the inhibition at 0.033 µM in data set [2] (33 nM/4 h treatment) lay in the range of 0 to 70%; in data set [2] (33 nM/24 h treatment), 0 to 90%.

These data come from US20260001875A1, “AMINOPYRIMIDINYL DERIVATIVES FOR THE TREATMENT OF PARKINSON'S DISEASE” (UNIVERSITY OF DUNDEE, priority 2022, published 2026).
